Assay results as given in paper PMC8895007, “Crystal structures of PigF, an O-methyltransferase involved in the prodigiosin synthetic pathway, reveal an induced-fit substrate-recognition mechanism” (IUCrJ, 2022).

B1: PigF, O-methyltransferase of the prodigiosin synthetic pathway from Serratia marcescens FS14 (enzyme)
chain: MPLTKQDAVNQMMGFFQAKALTAALALKLFDQLRDRDADAAHIAARLDCPARSTEQLLIALRAMGYLDQRDGLYHLPAAHRAFLLSDEPQWLGWLGRHIDTFLYPLWGELKTAVRNDAHQRRTVFGDDRSWFDILYQNPDDVADFQEFLGKFAAPFIAGFVRDYDFSQHRAFLDIGSGIGSLPMAIADAYPGIALAICELPQASAFLRDKLTLQGYGERIDVVEGDVISGDLPIGGYDLIHLGWMLHDYAPETQLTILRNIYRAMPAGGRFIASETPLNEDKSGPEFTALLSLNMLVSTDGGIESSAQEYLDRFRLAGFSNARIMKIAGPRTLIVGEK
notes: PigF of Serratia marcescens FS14, 338 amino-acid residues; 100% identical to PigF of S. marcescens VGH107 (NCBI WP 004940222.1); residues 3-338 are seen in both chains of the PigF-SAH structure; Cloned into pET-24b as in Liu et al., 2012; The results call the protein N-terminally polyhistidine-tagged; pET-24b usually adds a C-terminal His tag (surmise); Crystallised with 2 mM SAH (small molecule) …

Key:
[1] = molecular target: T1, PigF (Serratia marcescens, UniProt Q5W249); test: X-ray crystal structure (co-crystallisation), […] A; assay type: binding; conditions: 2 mM SAH premixed 30 min; pH 4.6, 12% MPD; cofactor site in C-terminal catalytic domain
T1 construct: residues 3-338 seen in SAH complex

[2] = molecular target: the molecule itself; test: native gel or EMSA; nondenaturing gel, comparison with standards; PigF in solution

Molecule	X-ray crystal structure (co-crystallisation), 1.97 A [1]	stoichiometry N [2]
Nc1ncnc2c1ncn2[C@@H]1O[C@H](CSCC[C@H](N)C(=O)O)[C@@H](O)[C@H]1O [S-adenosylhomocysteine]	the resulting phased map revealed clear electron density for the entire protein molecule and the SAH cofactor	
B1		2
